According to patent US20120130078A1, “INDAZOLE DERIVATIVES AS ADENOSINE MONOPHOSPHATE DEAMINASE (AMPD) INHIBITORS FOR USE IN DIABETES AND RELATED DISEASES OF METABOLIC SYNDROME” (priority 2010, published 2012):

Columns and labels:
L6 cells [1] = experiment: Glucose uptake assay (2-deoxyglucose uptake) in L6 cells; assay type: cell-based; conditions: FIG. 1, 4, 10
Experimental: Glucose uptake was determined as the rate of 2-deoxy-D-[2,6-^3H]glucose uptake, using modification of a previous method (15). The cells were first incubated for 15 min with Krebs-Henseleit Bicarbonate buffer (KHB), glucose, and other agents as indicated. At this point, the labeled deoxyglucose (0.6 μCi) was added to each well and the incubation continued for 45 min. The media was aspirated, and the wells were washed three times with ice-cold KHB to remove exogenous label. The cells were lysed by the addition of 0.1% Triton-X100 (1 mL). Samples of each well were mixed with aqueous scintillation fluid and measured by liquid scintillation counting.

L6 cells [2] = experiment: Palmitate (fatty acid) oxidation assay in L6 cells; assay type: cell-based; conditions: FIG. 2, 3, 11
Experimental: Palmitate oxidation was determined by a modification of quantitative measuring the rate of ^14CO2 production from ^14C-labeled palmitic acid as described previously (24). The KHB for these incubations was supplemented with fatty-acid poor albumin, dialyzed against the same buffer (three changes). The final albumin concentration was 1%. After an initial 10 min of incubation, all samples received 2 mM carnitine and [1-^14C]-palmitic acid (1 μCi/mole), and other additions as noted, and incubations continued to the end of 3 h. Aliquots of 0.8 mL were taken from each well to an eppendorf tube. […] 200 μL of 3 M perchloric acid was carefully added to the 0.8 mL to ensure no acid was deposited on the side of the tube, and the lid was quickly closed. The tubes were incubated overnight to allow the [^14C] CO2 to be absorbed into the wick. The caps were removed with scissors and placed in 10 mL of liquid scintillation fluid for counting.

L6 cells [3] = experiment: Ammonia assay, ammonia formation by intact cells; assay type: cell-based; conditions: FIG. 7, 12
Experimental: Ammonia was measured as described by Kun et al. (19). Briefly, after two hours incubation with or without 10 mM metformin, 0.5 mL of samples were added into cuvette and mixed with assay reagents (100 mM Tris buffer, 10 mM α-ketoglutaric acid, 0.24 mM NADH in 1 mL). Absorbance was measured at 340 nm with spectro-photometer (Hitachi, U-2000). 20 μL of glutamate dehydrogenase (200 μg/mL) was added into cuvette and mixed, and absorbance was measured again after 1 hour at 340 nm.

AMP deaminase (AMPD) = experiment: AMP deaminase enzymatic assay (in vitro); assay type: biochemical; conditions: for AMPD inhibition, comparison of three synthesized compounds: FIG. 9
Experimental: AMP deaminase activity was measured as described by Ashby and Frieden (4). Standard assay monitored the absorbance change at 285 nm as a result of AMP conversion to IMP in a reaction volume of 2 mL containing 50 mM imidazole-HCl (pH 7.0), 2 mM AMP and 150 mM KCl. One unit of enzyme activity is defined as the amount of protein required to produce 1 μmol IMP per min at 25° C. under standard conditions.

AMPK = experiment: Phosphorylation of AMPK; assay type: cell-based
L6 muscle cell line [4] = experiment: Lactate formation in L6 muscle cell line; assay type: cell-based
L6 muscle cell line [5] = experiment: Glycogen synthesis in L6 muscle cell line; assay type: cell-based
[6] = system: cells with adenylate kinase knockout; experiment: Metformin action in cells with adenylate kinase knockout (siRNA); assay type: cell-based; conditions: adenylate kinase knockout using siRNA; FIG. 5
acetyl CoA carboxylase = experiment: Phosphorylation of acetyl CoA carboxylase; assay type: cell-based

AMPD inhibition, comparison of three synthesized compounds (AMP deaminase (AMPD)) | Structure (SMILES) | glucose transport / glucose uptake (L6 cells [1]) | palmitate / fatty acid oxidation (L6 cells [2]) | ammonia formation (L6 cells [3]) | other results
similar | NC(=O)c1n[nH]c2ccccc12 [SKTT-1, 1H-indazole-3-carboxamide] | stimulated glucose uptake | replicated the metformin stimulation of fatty acid oxidation | suppressed ammonia formation | AMPD inhibition curves, potency compared with metformin (AMP deaminase (AMPD); FIG. 8, compared with metformin): more potent
similar | COC(=O)c1n[nH]c2ccccc12 [SKTT-2, methyl 1H-indazole-3-carboxylate] | stimulated glucose uptake | replicated the metformin stimulation of fatty acid oxidation | suppressed ammonia formation | –
somewhat less effective | COC(=O)c1cccc2[nH]ncc12 [SKTT-12, methyl 1H-indazole-4-carboxylate] | – | – | – | –

The remaining lines, values behind:

Structure (SMILES) | AMPD inhibition, comparison of three synthesized compounds (AMP deaminase (AMPD)) | glucose transport / glucose uptake (L6 cells [1]) | palmitate / fatty acid oxidation (L6 cells [2]) | ammonia formation (L6 cells [3]) | other results
[NH-]c1c[n+](N2CCOCC2)no1 [SIN-1] | – | stimulation of glucose transport | inhibits fatty acid oxidation | – | –
CN(C)C(=N)N=C(N)N [metformin] | – | stimulation of glucose transport | stimulation | decrease in ammonia formation | AMPD activity measured in vitro (AMP deaminase (AMPD); FIG. 6): inhibited AMPD activity; phosphorylation of the AMPK (AMPK): direct phosphorylation of the AMPK; lactate formation (L6 muscle cell line [4]): stimulation; glycogen synthesis (L6 muscle cell line [5]): inhibition of glycogen synthesis; effect of adenylate kinase deletion on metformin action [6]: no effect; phosphorylation of acetyl CoA carboxylase (acetyl CoA carboxylase): phosphorylation
C=C(C)[C@H]1Cc2c(ccc3c2O[C@@H]2COc4cc(OC)c(OC)cc4[C@@H]2C3=O)O1 [rotenone] | – | does increase glucose uptake | leads only to inhibition of fatty acid oxidation | – | –
